In patent US10966911B2, “Melanin decomposition inhibitor” (KAO CORPORATION, priority 2016, dated 2021):

Legend:
[1] = test system: melanocytes (HEMn-LP, HEMn-DP); assay: Intracellular melanin amount of melanocytes in melanocyte single culture system; assay type: cell-based, human; details: melanocytes (lightly and darkly); proguanil 3, 10 or 30 μM; 7 days; versus DMSO; FIGS. 15A, 15B
Experimental: Normal human neonatal foreskin-derived epidermal melanocytes (Human Epidermal Melanocytes, neonatal, lightly pigmented donor (HEMn-LP) and Human Epidermal Melanocytes, neonatal, darkly pigmented donor (HEMn-DP); melanocytes (lightly) and melanocytes (darkly)), a growth medium for epidermal melanocytes (Medium254) and a growth additive (HMGS) for the medium were purchased from Thermo Fisher Scientific. Melanocytes were cultured at 37° C. in 5 vol % CO2 atmospheric conditions. Melanocytes (lightly and darkly) were seeded in 6-well plates at a cell density of 2×10^5 cells/well (2 mL/well). […] The following day, proguanil was added at a final concentration of 3, 10 or 30 μM and culture was performed at 37° C. in 5 vol % CO2 atmospheric conditions for 7 days. As a control, the same amount of DMSO was added. Note that medium replacement was carried out every 2 to 3 days. After completion of culture, the cell culture plates were washed with PBS and the cells were collected by use of a cell scraper in 1.5 mL micro tubes. To individual tubes, 2M NaOH (150 μL) was added and treatment was performed at 100° C. for 60 minutes to lyse the cells. Each of the lysates was centrifuged at a 21,640 g for 10 minutes at room temperature and the supernatant was recovered. The absorbance of the supernatant recovered was measured at a wavelength of 405 nm and the amount of melanin per well was calculated.

[2] = test system: keratinocytes and melanocytes; assay: Cellular respiratory chain (growth) activity in keratinocyte-melanocyte co-culture system; assay type: cell-based, human; details: concentration range of 30 μM or less, 4 days, FIGS. 16C, 16D
Source text: Normal human neonatal foreskin-derived epidermal keratinocytes (Human Epidermal Keratinocytes, neonatal (HEKn) lightly; keratinocytes) and growth medium (Epilife) for epidermal keratinocytes were purchased from Thermo Fisher Scientific. Growth additives (Humedia-KG) for a medium were purchased from Kurabo Industries Ltd. Normal human neonatal foreskin-derived epidermal melanocytes (Human Epidermal Melanocytes, neonatal, lightly pigmented donor (HEMn-LP) and Human Epidermal Melanocytes, neonatal, darkly pigmented donor (HEMn-DP); melanocytes (lightly) and melanocytes (darkly)) were purchased from Thermo Fisher Scientific. Keratinocytes and melanocytes were cultured at 37° C. in 5 vol % CO2 atmospheric conditions.
Keratinocytes were seeded in a 96-well plate at a cell density of 1×10^4 cells/well (100 μL/well). On the following day, melanocytes (lightly and darkly) were seeded at a cell density of 2×10^4 cells/well (100 μL/well). […] Culture was performed at 37° C. in a 5 vol % CO2 atmospheric conditions for 4 days. As a test medium at this time, Epilife was used, which contained Humedia-KG growth additive (insulin, hydrocortisone, BPE, gentamicin and amphotericin B) except a Human Epidermal Growth Factor (hEGF). […] After completion of culture, cellular respiratory chain (growth) activity and dopa oxidase activity were evaluated in the same manner as in Example 11.

[3] = test system: melanocytes (HEMn-LP, HEMn-DP); assay: Cellular respiratory chain (growth) activity, alamarBlue, melanocyte single culture system; assay type: cell-based, human; details: melanocytes (lightly and darkly); concentration range of 30 μM or less; 4 days; FIGS. 14C, 14D
Experimental: Normal human neonatal foreskin-derived epidermal melanocytes (Human Epidermal Melanocytes, neonatal, lightly pigmented donor (HEMn-LP) and Human Epidermal Melanocytes, neonatal, darkly pigmented donor (HEMn-DP); melanocytes (lightly) and melanocytes (darkly)), a growth medium for epidermal melanocytes (Medium254) and a growth additive (HMGS) for the medium were purchased from Thermo Fisher Scientific. Melanocytes were cultured at 37° C. in 5 vol % CO2 atmospheric conditions.
Melanocytes (lightly and darkly) were seeded in 96-well plates at a cell density of 2×10^4 cells/well (100 μL/well). […] As a control, the same amount of DMSO was added. After completion of culture, the whole medium was replaced (100 μL/well), a reagent, alamarBlue (Bio-Rad AbD Serotec Limited) was added so as to obtain a ratio of 10 μL/well. Incubation was carried out at 37° C. in 5 vol % CO2 atmospheric conditions for one hour. Thereafter, fluorescence intensity of the medium was measured (Ex544 nm/Em590 nm) to evaluate cellular respiratory chain (growth) activity.

[4] = test system: human skin tissue; assay: HE staining of skin tissue cultured with proguanil (tissue damage); assay type: cell-based; details: proguanil 180 μM; 5 days; FIG. 13 lower stage
Experimental: (§1) The human skin tissue, from which subcutaneous fat was previously trimmed, was cut into small pieces having a size of about 1 cm×1 cm by knife. The small pieces were cultured by using a 6-well plate at 37° C. under a 5 vol % CO2 atmospheric conditions. In the culture, Advanced DMEM medium containing a 10% (v/v) Fetal Bovine Serum (FBS) (Thermo Fisher Scientific, respectively) was used. […] More specifically, the skin tissue was embedded in paraffin and the resultant paraffine block was sliced to prepare paraffin sections of 5 μm in thickness. A Fontana ammonia silver solution (manufactured by MUTO PURE CHEMICALS Co., Ltd.) was allowed to react at room temperature for two hours to visually distinguish melanin granules. Thereafter, nuclear staining was performed using Kernechtrot solution (manufactured by MUTO PURE CHEMICALS Co., Ltd.). […] At the same time, HE staining was carried out.

[5] = test system: human skin tissue; assay: Fontana-Masson staining of skin tissue cultured with proguanil; assay type: cell-based; details: proguanil 180 μM; 5 days; versus DMSO control; FIG. 13 upper stage
Experimental: as §1

[6] = test system: LC3-II; assay: Autophagy activity of epidermal keratinocytes (LC3-II accumulation with chloroquine diphosphate, Western blotting); assay type: cell-based, human; details: proguanil 0.3, 1, 3, 10 or 30 μM in presence of 10 μM chloroquine diphosphate, FIG. 18
Experimental: Normal human neonatal foreskin-derived epidermal keratinocytes (Human Epidermal Keratinocytes, neonatal (HEKn) lightly; keratinocytes) were purchased from Thermo Fisher Scientific. […] The keratinocytes were cultured in a grow medium (Epilife) epidermal keratinocytes (Thermo Fisher Scientific) supplemented with a growth additive (Humedia-KG) (manufactured by Kurabo Industries Ltd.) at 37° C. in 5 vol % CO2 atmospheric conditions.
Keratinocytes were seeded in a 6-well plate at a density of 1.5×10^5 cells/well (2 mL/well). The following day, proguanil was added so as to obtain a final concentration of 0.3, 1, 3, 10 or 30 μM. Culture was performed at 37° C. in 5 vol % CO2 atmospheric conditions. As a control, the same amount of DMSO was added. […] The following day, Chloroquine diphosphate attached to LC3B Antibody Kit for Autophagy (Thermo Fisher Scientific) was added so as to obtain a final concentration of 10 μM. Culture was performed at 37° C. in 5 vol % CO2 atmospheric conditions for 24 hours. After completion of the culture, SDS-PAGE and western blotting were performed in accordance with the method as mentioned above. As a primary antibody, anti-LC3B (1:1000) attached to the kit mentioned above was used. […] Expression of β-actin as the internal standard was evaluated by using monoclonal antibody specific for β-actin (Sigma-Aldrich, 1:5000).

[7] = test system: human skin tissue; assay: Effect of proguanil on skin color of cultured human skin tissue; assay type: cell-based; details: proguanil 150, 180, 210, 240, 270 or 300 μM; Day 5; versus DMSO; FIG. 12
Experimental: A normal human skin tissue, which was obtained at the time of surgical operation, was provided by a medical college (department of plastic surgery). The human skin tissue, from which subcutaneous fat was previously trimmed, was cut into small pieces having a size of about 1 cm×1 cm by knife. The small pieces were cultured by using a 6-well plate at 37° C. under a 5 vol % CO2 atmospheric conditions. In the culture, Advanced DMEM medium containing a 10% (v/v) Fetal Bovine Serum (FBS) (Thermo Fisher Scientific, respectively) was used. A human skin tissue was allowed to stand still in a 6-well plate. Proguanil was added in the medium at a final concentration of 150, 180, 210, 240, 270 or 300 μM and then tissue culture was performed. As a control, DMSO was added in the same amount. Medium replacement was carried out every 2 to 3 days. Day 5 after initiation of the culture, the appearance of the skin tissue was observed and photographed.

[8] = test system: dopa oxidase activity of melanocytes; assay: Dopa oxidase activity of melanocytes in keratinocyte-melanocyte co-culture system; assay type: cell-based, human; details: melanocytes (lightly and darkly), proguanil 0.1-1000 μM, 4 days, versus DMSO, FIGS. 16A, 16B
Experimental: Melanocytes (lightly and darkly) were seeded in 96-well plates at a cell density of 2×10^4 cells/well (100 μL/well). […] Two days later, proguanil was added at a final concentration of 0.1, 0.3, 1, 3, 10, 30, 100, 300 or 1000 μM and culture was performed at 37° C. in 5 vol % CO2 atmospheric conditions for 4 days. As a control, the same amount of DMSO was added. After completion of culture, the whole medium was replaced (100 μL/well), a reagent, alamarBlue (Bio-Rad AbD Serotec Limited) was added so as to obtain a ratio of 10 μL/well. Incubation was carried out at 37° C. in 5 vol % CO2 atmospheric conditions for one hour. Thereafter, fluorescence intensity of the medium was measured (Ex544 nm/Em590 nm) to evaluate cellular respiratory chain (growth) activity. […] The cells were lysed at 4° C. over 2 hours and dopa oxidase activity was measured. The activity measurement was performed by the following method based on the […] method (Winder A. et al., 1991, Eur. J. Biochem. 198: 317-326): to individual wells containing a cell lysate, the Assay Buffer (80 μL) as mentioned above, an aqueous 20.7 mM MBTH (3-methyl-2-benzothiazolinone hydrazone) solution (60 μL) and an aqueous 5 mM L-DOPA (L-dihydroxyphenylalanine) (40 μL) solution serving as a substrate were added, a reaction was performed at 37° C. for 30 minutes and the absorbance at a wavelength of 505 nm was measured. […]

Compound: [H]/N=C(\N/C(=N/[H])Nc1ccc(Cl)cc1)NC(C)C [proguanil, 1-(p-chlorophenyl)-5-isopropyl biguanide]
- intracellular amount of melanin [1]: does not increase intracellular amount of melanin
- cell toxicity (cellular respiratory chain activity) [2]: cell toxicity was not observed
- cell toxicity (cellular respiratory chain activity) [3]: cell toxicity was not observed
- tissue damage (HE staining) [4]: no damage was induced in the tissue
- deposition of melanin in the epidermis [5]: melanin is accumulated in a wider range of the epidermis
- accumulation of LC3-II [6]: the accumulation was reduced by proguanil in a concentration-dependent manner
- darkening of the skin color [7]: induces darkening of the skin color in a dose-dependent manner
- dopa oxidase activity [8]: does not accelerate dopa oxidase activity
